Assay [1] deals with Sodium-dependent serotonin transporter (Rattus norvegicus, UniProt P31652). The assay can be described thus: Ability to inhibit binding of [3H]paroxetine to Serotonin transporter in rat caudate putamen. It is filed as tissue-based.
The target of assay [2] is Sodium-dependent dopamine transporter (Rattus norvegicus, UniProt P23977). Kind of assay: Ability to inhibit binding of [3H]WIN-35428 to dopamine transporter in rat caudate putamen. It is filed as tissue-based.
The species entered for another assay is Rattus norvegicus. The assay can be described thus: Ability to inhibit high-affinity uptake of [3H]DA into striatal nerve endings (synaptosomes). The following applies: Brain. Format: functional.

The structures appear in SMILES notation. pIC50: −log10 of the molar value. Some results are limits rather than exact numbers.

The text below walks through data of ChEMBL document CHEMBL1134242 (Bioorg Med Chem Lett, 2001).

Sequence of Sodium-dependent dopamine transporter (P23977 whole entry): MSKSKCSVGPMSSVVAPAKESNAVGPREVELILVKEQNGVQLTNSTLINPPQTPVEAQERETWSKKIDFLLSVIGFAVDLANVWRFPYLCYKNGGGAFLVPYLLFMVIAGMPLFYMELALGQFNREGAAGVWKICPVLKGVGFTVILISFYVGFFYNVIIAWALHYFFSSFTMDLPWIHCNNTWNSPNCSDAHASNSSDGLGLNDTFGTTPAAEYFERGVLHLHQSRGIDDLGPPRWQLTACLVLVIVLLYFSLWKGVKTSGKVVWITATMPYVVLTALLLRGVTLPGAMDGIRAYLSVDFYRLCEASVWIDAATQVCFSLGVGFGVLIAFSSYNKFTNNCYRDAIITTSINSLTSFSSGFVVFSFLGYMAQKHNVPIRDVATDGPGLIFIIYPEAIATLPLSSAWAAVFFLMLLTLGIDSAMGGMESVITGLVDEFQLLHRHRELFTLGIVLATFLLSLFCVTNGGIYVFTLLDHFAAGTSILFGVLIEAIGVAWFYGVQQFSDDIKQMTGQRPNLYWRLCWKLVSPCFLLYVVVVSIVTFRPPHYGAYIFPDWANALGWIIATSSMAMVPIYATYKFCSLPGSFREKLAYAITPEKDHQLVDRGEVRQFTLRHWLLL
Sequence of Sodium-dependent serotonin transporter (P31652 whole entry): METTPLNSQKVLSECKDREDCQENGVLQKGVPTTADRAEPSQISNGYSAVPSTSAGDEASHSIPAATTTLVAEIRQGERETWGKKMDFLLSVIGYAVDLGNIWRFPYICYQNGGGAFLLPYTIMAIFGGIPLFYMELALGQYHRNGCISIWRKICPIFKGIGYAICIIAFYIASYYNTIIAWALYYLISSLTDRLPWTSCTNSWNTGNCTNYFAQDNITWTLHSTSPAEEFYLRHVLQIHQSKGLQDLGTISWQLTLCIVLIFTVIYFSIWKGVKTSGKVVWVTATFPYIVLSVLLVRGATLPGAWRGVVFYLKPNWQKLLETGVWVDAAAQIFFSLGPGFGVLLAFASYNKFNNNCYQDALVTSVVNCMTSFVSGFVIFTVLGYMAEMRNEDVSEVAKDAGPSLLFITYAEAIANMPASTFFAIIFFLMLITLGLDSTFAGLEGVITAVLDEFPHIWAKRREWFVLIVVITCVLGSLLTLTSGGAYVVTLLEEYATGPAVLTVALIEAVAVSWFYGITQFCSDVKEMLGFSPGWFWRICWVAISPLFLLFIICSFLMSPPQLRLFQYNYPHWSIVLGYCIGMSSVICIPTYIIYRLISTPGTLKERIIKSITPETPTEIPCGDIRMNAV

As a reminder, the pIC50 is the negative decadic logarithm of the IC50, by convention in mol/L. A lower pIC50 goes with a large IC50. Regarding `CO[C@H]1CC2C[C@H](OC(c3ccccc3)c3ccc(Cl)cc3)CC1N2C` (stereo partly drawn), the pIC50 in assay [1] is below 4.00; in assay [2], 6.12; in the assay filed under Rattus norvegicus, 6.28.
For `CO[C@@H]1CC2C[C@@H](OC(c3ccccc3)c3ccc(Cl)cc3)CC1N2C` (stereo partly drawn) the same measures were below 4.00, 7.49 and 6.75.
`c1ccc(C(O[C@H]2C[C@H]3CC[C@@H](C2)O3)c2ccccc2)cc1` had a negative-log IC50 (pIC50) in assay [2] below 5.00.
Still for that read-out and setting: under `Fc1ccc(C(O[C@H]2C[C@H]3CC[C@@H](C2)O3)c2ccc(F)cc2)cc1` stands 5.70.
`CO[C@H]1CC2C[C@H](OC(c3ccc(F)cc3)c3ccc(F)cc3)CC1N2C` (stereo partly drawn): the results for the pIC50 (in assay [1]; in assay [2]; in the assay filed under Rattus norvegicus) were below 4.00, 7.02 and 6.78, respectively.
For `CO[C@@H]1CC2C[C@@H](OC(c3ccc(F)cc3)c3ccc(F)cc3)CC1N2C` (stereo partly drawn) the same measures were below 4.00, 7.60 and 6.98.
For `CO[C@H]1CC2C[C@H](OC(c3ccccc3)c3ccccc3)CC1N2C` (mixture of isomers) the same measures were below 4.00, 6.19 and 5.64.
`COC(=O)[C@@H]1C2CC[C@@H](C[C@@H]1OC(=O)c1ccccc1)N2C` (single isomer, unassigned) [COCAINE] showed a pIC50 in the assay filed under Rattus norvegicus of 6.68.
